Source: ChEMBL document CHEMBL1201862, “PubChem BioAssay data set” (2004)
Calls of active or inactive are those of the source.

Columns and labels:
[1] = biological target: T1, Corticotropin-releasing factor receptor 2/Corticotropin-releasing factor-binding protein (Homo sapiens, UniProt P24387+Q13324); assay: Dose Response confirmation of uHTS hits for small molecule antagonists of the CRF-binding protein and CRF-R2 receptor complex.; assay type: functional; conditions: read-out: IC50_Mean
T1 sequence (Q13324 whole entry): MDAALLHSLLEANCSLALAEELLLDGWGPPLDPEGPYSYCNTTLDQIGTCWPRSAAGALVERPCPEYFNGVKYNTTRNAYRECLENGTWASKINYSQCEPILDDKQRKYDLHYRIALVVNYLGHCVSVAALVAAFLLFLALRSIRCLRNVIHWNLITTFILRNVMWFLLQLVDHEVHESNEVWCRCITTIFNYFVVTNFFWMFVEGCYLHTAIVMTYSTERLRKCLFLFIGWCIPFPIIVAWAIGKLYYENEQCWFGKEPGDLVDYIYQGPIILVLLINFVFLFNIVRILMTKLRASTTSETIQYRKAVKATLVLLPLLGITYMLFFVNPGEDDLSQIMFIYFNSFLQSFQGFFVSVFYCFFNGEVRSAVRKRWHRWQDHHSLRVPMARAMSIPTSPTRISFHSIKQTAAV
T1 sequence (P24387 whole entry): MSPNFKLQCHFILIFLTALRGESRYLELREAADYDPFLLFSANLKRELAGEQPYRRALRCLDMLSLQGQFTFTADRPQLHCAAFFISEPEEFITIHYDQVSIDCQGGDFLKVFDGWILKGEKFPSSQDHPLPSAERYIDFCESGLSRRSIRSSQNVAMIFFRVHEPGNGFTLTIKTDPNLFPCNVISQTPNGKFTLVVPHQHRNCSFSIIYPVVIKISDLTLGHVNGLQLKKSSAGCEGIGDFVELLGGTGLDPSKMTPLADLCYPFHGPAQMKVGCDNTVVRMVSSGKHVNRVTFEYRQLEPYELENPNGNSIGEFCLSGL

[2] = biological target: T1, Corticotropin-releasing factor receptor 2/Corticotropin-releasing factor-binding protein; assay: activators of CRF receptor 2 with binding protein – uHTS hits, confirmation (AID 602473); assay type: functional; conditions: read-out: EC50_Mean
[3] = Luminescence Cell-Based Dose Confirmation HTS to Identify Inhibitors of Platelet Dense Granule Release. [Related pubchem assays: 1663 (Primary HTS), 1678 (Summary of Project)]; assay type: functional
[4] = biological target: Luciferin 4-monooxygenase (Photinus pyralis, UniProt P08659); assay: firefly luciferase enzyme inhibitors, dose response, biochemical, luminescence (AID 1891)
Luciferin 4-monooxygenase, sequence (P08659 whole entry): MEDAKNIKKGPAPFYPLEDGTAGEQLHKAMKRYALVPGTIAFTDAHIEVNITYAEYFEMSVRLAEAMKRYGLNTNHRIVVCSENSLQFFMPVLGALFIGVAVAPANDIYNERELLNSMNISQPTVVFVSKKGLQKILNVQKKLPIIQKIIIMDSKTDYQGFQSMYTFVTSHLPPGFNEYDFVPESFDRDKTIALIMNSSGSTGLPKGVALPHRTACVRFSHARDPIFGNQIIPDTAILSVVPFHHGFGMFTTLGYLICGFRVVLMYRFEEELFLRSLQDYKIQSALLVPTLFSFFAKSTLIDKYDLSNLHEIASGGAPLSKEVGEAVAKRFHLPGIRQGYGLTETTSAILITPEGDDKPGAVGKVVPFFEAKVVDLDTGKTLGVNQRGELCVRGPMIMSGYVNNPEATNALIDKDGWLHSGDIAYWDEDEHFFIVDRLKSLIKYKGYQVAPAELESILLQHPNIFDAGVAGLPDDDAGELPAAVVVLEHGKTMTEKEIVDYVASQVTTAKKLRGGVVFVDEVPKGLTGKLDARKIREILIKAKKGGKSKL

[5] = growth suppression of PTEN-null colon cells, dose response, cell-based, HCT116 PTEN knockout (AID 1047); assay type: functional;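 further: HCT116 colon tumor cells with PTEN knocked out; cells exposed to compound for 60 hours before readout; potency for loss of cell viability measured by luminescence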
[6] = growth suppression of beta-catenin-knockout colon cells, dose response, cell-based, HCT116, human colon tumor (AID 1045); assay type: functional;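 further: HCT116 colon tumor cells with beta catenin knocked out; cells exposed to compound for 60 hours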
[7] = inhibitors of HIV Env-driven cell fusion, dose response, cherry-pick (AID 652057); assay type: functional, cell-based
[8] = inhibitors of clade B AD8 Env fusion, dose response, cell-based, cherry-pick (AID 652062); assay type: functional;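 further: luciferase signal from cell-cell fusion driven by HIV-1 clade B AD8 Env; potency is for inhibitors of fusion seen as a drop in luminescence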
Cytochrome P450 1A2 = biological target: T2, Cytochrome P450 1A2 (Homo sapiens, UniProt P05177);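 further: PubChem cytochrome P450 panel assay, CYP1A2 panel member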
T2 sequence (P05177 whole entry): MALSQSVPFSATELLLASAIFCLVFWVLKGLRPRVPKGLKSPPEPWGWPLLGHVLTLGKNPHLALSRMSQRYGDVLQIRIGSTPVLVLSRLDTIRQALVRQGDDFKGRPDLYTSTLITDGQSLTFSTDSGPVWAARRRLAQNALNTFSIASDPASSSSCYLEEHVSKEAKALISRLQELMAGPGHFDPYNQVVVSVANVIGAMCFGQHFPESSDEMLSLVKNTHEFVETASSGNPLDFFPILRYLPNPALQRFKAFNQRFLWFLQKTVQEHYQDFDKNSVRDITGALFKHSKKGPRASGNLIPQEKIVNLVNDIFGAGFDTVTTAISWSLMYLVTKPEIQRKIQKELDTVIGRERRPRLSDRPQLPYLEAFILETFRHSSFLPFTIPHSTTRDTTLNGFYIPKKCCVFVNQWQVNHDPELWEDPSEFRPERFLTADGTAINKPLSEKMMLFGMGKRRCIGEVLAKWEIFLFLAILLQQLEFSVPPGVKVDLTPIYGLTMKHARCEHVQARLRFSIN

Cytochrome P450 2C19 = Cytochrome P450 2C19 (Homo sapiens, UniProt P33261); assay: Cytochrome panel assay with activity outcomes. Panel member name: p450-cyp2c19 Compounds with AC50 equal or less than 10 uM are considered active; assay type: functional
Cytochrome P450 2C19, sequence (P33261 whole entry): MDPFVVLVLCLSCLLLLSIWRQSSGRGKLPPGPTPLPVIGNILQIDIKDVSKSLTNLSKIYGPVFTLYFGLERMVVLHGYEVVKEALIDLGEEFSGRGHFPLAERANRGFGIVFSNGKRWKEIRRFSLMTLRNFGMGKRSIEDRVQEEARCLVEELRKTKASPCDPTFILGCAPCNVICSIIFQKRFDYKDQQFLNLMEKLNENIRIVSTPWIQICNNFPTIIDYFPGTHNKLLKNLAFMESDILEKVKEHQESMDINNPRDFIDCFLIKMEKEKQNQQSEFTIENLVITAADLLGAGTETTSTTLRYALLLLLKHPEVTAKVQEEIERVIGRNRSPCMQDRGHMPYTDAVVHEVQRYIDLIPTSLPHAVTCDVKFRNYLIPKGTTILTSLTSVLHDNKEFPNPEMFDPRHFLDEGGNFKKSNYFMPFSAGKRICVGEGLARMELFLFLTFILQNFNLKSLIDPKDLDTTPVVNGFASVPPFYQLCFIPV

Cytochrome P450 2C9 = Cytochrome P450 2C9 (Homo sapiens, UniProt P11712)
Cytochrome P450 2C9, sequence (P11712 whole entry): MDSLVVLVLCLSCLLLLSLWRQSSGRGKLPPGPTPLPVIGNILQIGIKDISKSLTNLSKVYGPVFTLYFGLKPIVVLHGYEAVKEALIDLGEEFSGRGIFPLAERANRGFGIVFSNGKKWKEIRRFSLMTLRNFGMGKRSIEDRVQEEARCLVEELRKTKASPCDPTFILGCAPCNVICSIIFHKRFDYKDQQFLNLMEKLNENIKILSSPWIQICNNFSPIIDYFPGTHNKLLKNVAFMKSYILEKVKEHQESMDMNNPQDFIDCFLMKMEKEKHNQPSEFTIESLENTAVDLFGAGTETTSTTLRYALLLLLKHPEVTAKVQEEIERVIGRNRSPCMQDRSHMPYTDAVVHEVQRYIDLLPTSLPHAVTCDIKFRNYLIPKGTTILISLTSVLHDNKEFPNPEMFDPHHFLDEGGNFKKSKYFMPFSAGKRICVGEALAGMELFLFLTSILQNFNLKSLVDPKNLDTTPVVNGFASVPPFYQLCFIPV

[9] = biological target: FAD-linked sulfhydryl oxidase ALR (Homo sapiens, UniProt P55789); assay: inhibitors of human ALR sulfhydryl oxidase, dose response, biochemical, H2O2 detection, luminescence, cherry-pick (AID 493248)
FAD-linked sulfhydryl oxidase ALR, sequence (P55789 whole entry): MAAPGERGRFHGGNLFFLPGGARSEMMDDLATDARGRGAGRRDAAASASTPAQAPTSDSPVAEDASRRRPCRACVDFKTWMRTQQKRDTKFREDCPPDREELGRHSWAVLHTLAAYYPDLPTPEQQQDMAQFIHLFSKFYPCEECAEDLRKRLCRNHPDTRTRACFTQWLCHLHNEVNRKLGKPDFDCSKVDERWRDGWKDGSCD

[10] = P. falciparum Dd2 growth inhibitors, dose response, SYBR Green, cherry-picked samples (AID 1159567); assay type: functional, cell-based
H4 = assay: Luminescence Cell-Based Dose Response HTS to Identify Activators of 5'UTR Stem-Loop Driven Prion Protein mRNA Translation in H4 Neuroglioblastoma Cells. [Related pubchem assays: 1829 (Project Summary), 1814 (Primary HTS)]; assay type: functional; conditions: Homo sapiens
[11] = Luminescence Cell-Based Dose Response HTS to Identify Activators of Luciferase Translation or Activity in H4 […] Cells. [Related pubchem assays: 1829 (Project Summary), 1814 (Primary HTS)]; assay type: functional
[12] = Luminescence Cell-Based Dose Confirmation HTS to Identify Activators of 5'UTR Stem-Loop Driven Alpha-Synuclein mRNA Translation in H4 Neuroglioblastoma Cells. [Related pubchem assays: 1829 (Project Summary), 1814 (Primary HTS)]; assay type: functional
Cytochrome P450 3A4 = Cytochrome P450 3A4 (Homo sapiens, UniProt P08684);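 further: CYP3A4 tested as one member of a cytochrome P450 panel screen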
Cytochrome P450 3A4, sequence (P08684 whole entry): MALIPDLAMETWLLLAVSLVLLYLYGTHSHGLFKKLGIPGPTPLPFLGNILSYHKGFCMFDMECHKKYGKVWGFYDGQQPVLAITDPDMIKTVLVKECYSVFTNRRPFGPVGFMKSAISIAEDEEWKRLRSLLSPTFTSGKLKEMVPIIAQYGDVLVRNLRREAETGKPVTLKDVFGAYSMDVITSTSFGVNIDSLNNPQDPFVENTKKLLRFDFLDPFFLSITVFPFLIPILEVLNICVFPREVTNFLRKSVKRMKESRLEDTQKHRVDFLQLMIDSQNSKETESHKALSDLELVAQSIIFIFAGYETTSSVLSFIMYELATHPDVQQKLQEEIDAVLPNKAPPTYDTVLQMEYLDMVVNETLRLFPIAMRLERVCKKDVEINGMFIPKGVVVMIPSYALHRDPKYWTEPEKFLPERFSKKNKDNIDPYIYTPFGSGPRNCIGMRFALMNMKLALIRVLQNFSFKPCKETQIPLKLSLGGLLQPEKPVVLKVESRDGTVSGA

Row | Structure (SMILES) | IC50 [1] | EC50 [2] | EC50 [3] | EC50 [4] | other results
1 | COc1ccc(/C=C2\SC(=S)N(CC(=O)NCCO)C2=O)cc1 | > 47.1 µM (inactive) | > 53 µM (inactive) |  |  | 
2 | CCOC(=O)c1cnc2c([N+](=O)[O-])cnn2c1C |  |  | > 112 µM (not active) | > 112 µM (not active) | 
3 | COc1cccc(/C(O)=C/c2nc3ccc(C(=O)NCCc4ccc(Cl)cc4)cc3nc2O)c1 |  | 5.02 µM (active) |  |  | EC50 [5]: 4.26 µM (active); EC50 [6]: 4.16 µM (active)
4 | CCCNC(=O)COC(=O)/C=C/c1ccco1 |  |  | > 112 µM (not active) | > 112 µM (not active) | 
5 | CCCN1[C@H](C(=O)N[C@@H](C)c2ccccc2)[C@@H](CO)[C@@H]2Cn3c(ccc(-c4cccc(F)c4)c3=O)[C@@H]21 |  |  |  |  | AC50 [7]: 41.5 µM (active)
6 | CCN1C(=O)[C@H]2[C@@H](c3ccc(C(F)(F)F)cc3)N[C@]3(CCCN(Cc4ccccc4)C3=O)[C@H]2C1=O |  |  |  |  | AC50 [8]: 0.682 µM (active)
7 | Cc1ccc(-c2csc3nnc(SCC(=O)N4CCN(Cc5ccccc5)CC4)n23)cc1 | > 47.1 µM (inactive) | > 53 µM (inactive) |  |  | 
8 | COC(=O)c1nn(-c2ccccc2)c(Sc2ccc(OC)cc2)c1/C=N/O |  |  | 28.5 µM (active) | > 112 µM (not active) | 
9 | C[C@H](CO)N1C[C@H](C)[C@H](CN(C)S(=O)(=O)c2ccccc2)Oc2ccc(NS(=O)(=O)c3ccccc3)cc2CC1=O |  |  |  |  | AC50 [7]: 8.48 µM (active); AC50 [8]: 13.6 µM (active)
10 | CCCCNC(=O)CCc1nc2cccnc2n1Cc1ccc(OC)cc1 | > 47.1 µM (inactive) | > 53 µM (inactive) |  |  | 
11 | C=CCn1c(C)cc(C(=O)CSc2nnc(Cc3ccccc3)o2)c1C | > 47.1 µM (inactive) | > 53 µM (inactive) |  |  | 
12 | Cc1ccc(CNC(=O)CCS(=O)(=O)c2ccc(Br)s2)o1 |  |  | > 112 µM (not active) | > 112 µM (not active) | 
13 | O=C(CN1C(=O)NC2(CCCC2)C1=O)c1ccc(Cl)s1 | > 47.1 µM (inactive) | > 53 µM (inactive) |  |  | 
14 | C/C(CC(=O)Nc1cc(Cl)ccc1Cl)=N\NC(N)=S |  |  |  |  | AC50 (Cytochrome P450 1A2): 12.6 µM (inconclusive); AC50 (Cytochrome P450 2C19; read-out: AC50): 28.2 µM (inconclusive); AC50 (Cytochrome P450 2C9): inconclusive
15 | O=C(NCc1ccc2c(c1)OCO2)C1CCN(S(=O)(=O)c2ccc(F)cc2)CC1 |  |  | > 112 µM (not active) | > 112 µM (not active) | 
16 | O=C(Nc1ccc(Cl)c(Cl)c1)Nc1ccccc1C(=O)O |  |  | 8.59 µM (active) | 0.12 µM (active) | AC50 [9]: 0.182 µM (active)
17 | O=C1c2ccccc2C(Nc2ccc(Cl)cn2)N1c1ccccn1 (configuration not stated) |  |  | > 112 µM (not active) | > 112 µM (not active) | 
18 | CCCCNCc1cc(Br)c(OCc2cccs2)c(OC)c1 |  |  |  |  | EC50 [5]: 17 µM (active); EC50 [6]: 16.6 µM (active)
19 | Cc1ccc(S(=O)(=O)n2nnc3ccccc32)c(C)c1C | > 47.1 µM (inactive) | > 53 µM (inactive) |  |  | 
20 | N#C[C@@H]1[C@H](c2ccccc2-c2cccc(F)c2)[C@@H](CO)N1C(=O)C1CCCC1 |  |  |  |  | AC50 [10]: 4.79 µM (active)

Row | Structure (SMILES) | IC50 [1] | EC50 [2] | EC50 [3] | EC50 [4] | other results
21 | O=C(c1ccccc1F)N1CC(=O)N2[C@H](C1)[C@H](c1ccc(-c3ccccc3)cc1)[C@@H]2CO |  |  |  |  | AC50 [10]: 5.6 µM (active)
22 | Cc1ccc2oc(-c3cccc(NC(=O)C4CCCO4)c3)nc2c1 (configuration not stated) |  |  | > 112 µM (not active) | 26.6 µM (active) | 
23 | O=C(NNC1=Nc2cccc3cccc1c23)c1ccccc1Br |  |  |  |  | EC50 [5]: 21.9 µM (active); EC50 [6]: 20.8 µM (active)
24 | COc1ccccc1C#Cc1ccc2c(c1)[C@H]1[C@H](CCN1C(=O)CN1CCOCC1)[C@@H](CO)N2 |  |  |  |  | AC50 [10]: 5.01 µM (active)
25 | CCOc1ccc(NC(=O)CCCN2C(=O)C(c3ccccc3)Oc3cccnc32)cc1 (configuration not stated) | > 47.1 µM (inactive) | > 53 µM (inactive) |  |  | 
26 | O=c1cc(Cc2ccc([N+](=O)[O-])cc2)[nH]c(=O)[nH]1 | > 47.1 µM (inactive) | > 53 µM (inactive) |  |  | 
27 | C[C@@H]1CN([C@H](C)CO)C(=O)c2cccc(NS(=O)(=O)c3ccccc3)c2O[C@@H]1CN(C)Cc1ccc(Cl)c(Cl)c1 |  |  |  |  | AC50 [7]: < 0.26 µM (active); AC50 [8]: 1.67 µM (active)
28 | Cn1nnnc1SCC(=O)NC1CCCc2ccccc21 (configuration not stated) |  |  | > 112 µM (not active) | > 112 µM (not active) | 
29 | COc1ccc(S(=O)(=O)N(C)C[C@@H]2Oc3ccc(N(C)C)cc3C(=O)N([C@H](C)CO)C[C@@H]2C)cc1 |  |  |  |  | AC50 [7]: 12 µM (active); AC50 [8]: 26.4 µM (active)
30 | COc1cccc(C(=O)Nc2ccc(Cl)c(C(F)(F)F)c2)c1 |  |  |  |  | EC50 [5]: 43.3 µM (active); EC50 [6]: 60.1 µM (active)
31 | COc1ccc(CCNC(=O)CSc2nc(N)c3c(C)c(C)oc3n2)cc1OC |  |  | > 112 µM (not active) | > 112 µM (not active) | 
32 | N#Cc1ccccc1Sc1ccccc1N | > 47.1 µM (inactive) | > 53 µM (inactive) |  |  | AC50 (Cytochrome P450 1A2): 22.4 µM (inconclusive)
33 | COc1ccccc1CNC(=O)C[C@H]1C[C@H]2c3cc(NC(=O)Cc4ccncc4)ccc3O[C@H]2[C@H](CO)O1 |  |  |  |  | AC50 [10]: 5.4 µM (active)
34 | CC1CCC(NC(=O)CCN2C(=O)C3CC=CCC3C2=O)CC1 (configuration not stated) | > 47.1 µM (inactive) | > 53 µM (inactive) |  |  | 
35 | Cc1ccc(OCn2c(=O)sc3ccccc32)cc1 | > 47.1 µM (inactive) | > 53 µM (inactive) |  |  | EC50 (H4): 14 µM (active); EC50 [11]: 35.3 µM (active); EC50 [12]: 42 µM (active)
36 | COc1ccc(CNc2oc(COc3ccccc3)nc2C#N)cc1 | > 47.1 µM (inactive) | > 53 µM (inactive) |  |  | 
37 | COc1ccc(C#Cc2ccc([C@@H]3[C@@H](CO)N4CCCCN(C(=O)Nc5ccccc5F)C[C@@H]34)cc2)cc1 |  |  |  |  | AC50 [10]: 8.08 µM (active)
38 | CC(C)Nc1nc(NC(C)(C)C)nc(Oc2ccc(=O)n(-c3ccccc3)n2)n1 |  |  | > 112 µM (not active) | > 112 µM (not active) | AC50 (Cytochrome P450 3A4): 12.6 µM (inconclusive); AC50 (Cytochrome P450 2C19): inconclusive
39 | Clc1nccnc1N/N=C/c1ccc(Br)cc1 |  |  | 4.81 µM (active) | 2.82 µM (active) | 
40 | Cc1ccc(S(=O)(=O)N(C)C[C@@H]2Oc3ccc(NC(=O)Nc4ccc5c(c4)OCO5)cc3C(=O)N([C@H](C)CO)C[C@@H]2C)cc1 |  |  |  |  | AC50 [7]: 2.48 µM (active); AC50 [8]: 5.55 µM (active)
